Data reported in paper PMC10165273, “Itch receptor MRGPRX4 interacts with the receptor activity–modifying proteins” (The Journal of Biological Chemistry, 2023).
Several values for one entry are separate records, joined by “and”; a condition that tells them apart may be missing. Identical values can stand only once. Like-named read-outs stand apart in the source and are kept apart here.

Legend:
MRGPRX4 + RAMP3 [1] = biological target: T1, MRGPRX4 + RAMP3 (Homo sapiens, UniProt Q96LA9); experiment: IP1 accumulation, MRGPRX4 coexpressed with RAMP3; format: cell-based; set-up: key to IP1 Basal / response to agonist, X4:ramp3.I:0.25 / response to agonist, X4:ramp3.I:0.5 / response to agonist, X4:ramp3.I:1: % IP1; unstimulated mock = 0%, fully stimulated MRGPRX4 = 100%; conditions: for Emax: read-out: IP1 Emax; for IP1 accumulation (normalized): MRGPRX4+RAMP3 1pg 1:1, Supplementary Figure 5f, 5g
T1 construct: expressed in transfected cells; host or cells: HEK293T
T1 sequence (Q96LA9 whole entry): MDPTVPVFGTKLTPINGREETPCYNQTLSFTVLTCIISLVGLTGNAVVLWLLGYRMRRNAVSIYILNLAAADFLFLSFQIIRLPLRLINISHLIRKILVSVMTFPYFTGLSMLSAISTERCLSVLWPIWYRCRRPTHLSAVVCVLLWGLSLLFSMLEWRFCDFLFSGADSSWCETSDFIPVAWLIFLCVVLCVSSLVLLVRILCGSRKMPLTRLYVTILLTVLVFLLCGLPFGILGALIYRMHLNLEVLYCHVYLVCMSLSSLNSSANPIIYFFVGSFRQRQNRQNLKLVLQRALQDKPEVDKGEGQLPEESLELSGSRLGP
Procedure: HEK293T cells were transfected with 1 pg/cell of MRGPRX4 DNA, and the amount of DNA was kept constant at 2 pg/cell with pcDNA3.1(+) empty vector, unless otherwise specified. Twenty four hours after transfection, IP1 assay was performed as previously described ([51]). When applicable, cells were treated with 1 μM YM254890 (YM) or different concentrations of U73122 for 1 h prior to addition of agonist or buffer. After incubation for 2 h, HTRF reagents and IP1 calibration standards were added and incubated for 2 h in the dark at room temperature. Time-resolved fluorescence signals were read on the BioTek Synergy NEO-TRF Hybrid multi-mode reader (BioTek Instruments). All data were carried out in three independent experiments with three technical replicate each.
For RAMP DNA titration assay, HEK293T cells were cotransfected with a constant amount of 1 pg/cell of FLAG-MRGPRX4-GFP10-1D4 to which a serial dilution of 1, 0.75, 0.5, 0.25, or 0 pg/cell of each HA-RAMP-OLLAS was added. For a homogenous transfection of MRGPRX4, a master mix of MRGPRX4 DNA was made prior to addition of the RAMP DNA. […]
Data reduction, standard calibration, and transformation of HTRF data were performed as previously described ([51]). Normalized IP1 values were calculated relative to the unstimulated mock-transfected cells (set to 0%) and fully stimulated MRGPRX4 (alone if applicable) (set to 100%).

MRGPRX4 + RAMP3 [2] = biological target: T1, MRGPRX4 + RAMP3; experiment: IP1 accumulation, MRGPRX4 coexpressed with RAMP3; format: cell-based; set-up: key: % IP1; unstimulated mock = 0%, fully stimulated MRGPRX4 = 100%; conditions: Figure 4c-f; agonist 100µM; X4:ramp3 1:2; MRGPRX4 = 100
[3] = MRGPRX4 + RAMP3 0.25 pg (Fig. S3), normalized per agonist
[4] = MRGPRX4 + RAMP3 0.5 pg (Fig. S3), normalized per agonist
[5] = MRGPRX4 + RAMP3 1 pg (Fig. S3), normalized per agonist
[6] = MRGPRX4 + RAMP3 2 pg (Fig. S3), normalized per agonist
[7] = Tet-On MRGPRX4:RAMP3 Ratio 1:0.5 (Fig. S5F)
[8] = Tet-On MRGPRX4:RAMP3 Ratio 1:0.75 (Fig. S5F)
[9] = Tet-On MRGPRX4:RAMP3 Ratio 1:1 (Fig. S5F)

Q: Which results are given for CC(C)[C@H]1CC[C@H](C(=O)N[C@H](Cc2ccccc2)C(=O)O)CC1 [Nateglinide]?
A: EC50 (MRGPRX4 + RAMP3 [1]; Figure 4a top, DNA ratio MRGPRX4:RAMP3 1:0.25, individual replicates, read-out: potency (converted)): 11.8 µM and 9.51 µM and 7.13 µM; EC50 (MRGPRX4 + RAMP3 [1]; Figure 4a top, DNA ratio MRGPRX4:RAMP3 1:0.5, individual replicates, read-out: potency (converted)): 11.4 µM and 8.91 µM and 11.9 µM; EC50 (MRGPRX4 + RAMP3 [1]; Figure 4a top, DNA ratio MRGPRX4:RAMP3 1:0.75, individual replicates, read-out: potency (converted)): 11.6 µM and 10 µM and 5.04 µM; EC50 (MRGPRX4 + RAMP3 [1]; Figure 4a top, DNA ratio MRGPRX4:RAMP3 1:1, individual replicates, read-out: potency (converted)): 11 µM and 13.4 µM and 7.31 µM; response to agonist, X4:ramp3.I:0.25 (MRGPRX4 + RAMP3 [1]; Figure 4c-f, agonist 100µM, X4:ramp3 1:0.25, MRGPRX4 = 100): 78.1524 and 81.0936; response to agonist, X4:ramp3.I:0.5 (MRGPRX4 + RAMP3 [1]; Figure 4c-f, agonist 100µM, X4:ramp3 1:0.5, MRGPRX4 = 100): 74.9289 and 71.6542; response to agonist, X4:ramp3.I:1 (MRGPRX4 + RAMP3 [1]; Figure 4c-f, agonist 100µM, X4:ramp3 1:1, MRGPRX4 = 100): 57.9146 and 58.6922; IP1 Basal (MRGPRX4 + RAMP3 [1]; [3]): 18.35; IP1 span (top minus basal of the concentration-response fit) (MRGPRX4 + RAMP3 [1]; [3]): 72%; EC50 (MRGPRX4 + RAMP3 [1]; MRGPRX4 + RAMP3 0.25 pg (Fig. S3), normalized per agonist, read-out: IP1 EC50): 7.44 µM; Emax (MRGPRX4 + RAMP3 [1]; [3]): 90.3%; IP1 Basal (MRGPRX4 + RAMP3 [1]; [4]): 17.78; IP1 span (top minus basal of the concentration-response fit) (MRGPRX4 + RAMP3 [1]; [4]): 70.5%; EC50 (MRGPRX4 + RAMP3 [1]; MRGPRX4 + RAMP3 0.5 pg (Fig. S3), normalized per agonist, read-out: IP1 EC50): 10.6 µM; Emax (MRGPRX4 + RAMP3 [1]; [4]): 88.3%; IP1 Basal (MRGPRX4 + RAMP3 [1]; [5]): 13.65; IP1 span (top minus basal of the concentration-response fit) (MRGPRX4 + RAMP3 [1]; [5]): 76.8%; EC50 (MRGPRX4 + RAMP3 [1]; MRGPRX4 + RAMP3 1 pg (Fig. S3), normalized per agonist, read-out: IP1 EC50): 12 µM; Emax (MRGPRX4 + RAMP3 [1]; [5]): 90.4%; IP1 Basal (MRGPRX4 + RAMP3 [1]; [6]): 11.70; IP1 span (top minus basal of the concentration-response fit) (MRGPRX4 + RAMP3 [1]; [6]): 79.7%; EC50 (MRGPRX4 + RAMP3 [1]; MRGPRX4 + RAMP3 2 pg (Fig. S3), normalized per agonist, read-out: IP1 EC50): 14.5 µM; Emax (MRGPRX4 + RAMP3 [1]; [6]): 91.3%; IP1 Basal (MRGPRX4 + RAMP3 [1]; [7]): 10.08; IP1 span (top minus basal of the concentration-response fit) (MRGPRX4 + RAMP3 [1]; [7]): 83.3%; EC50 (MRGPRX4 + RAMP3 [1]; Tet-On MRGPRX4:RAMP3 Ratio 1:0.5 (Fig. S5F), read-out: IP1 EC50): 7.17 µM; Emax (MRGPRX4 + RAMP3 [1]; [7]): 93.4%; IP1 Basal (MRGPRX4 + RAMP3 [1]; [8]): 8.392; IP1 span (top minus basal of the concentration-response fit) (MRGPRX4 + RAMP3 [1]; [8]): 72.2%; EC50 (MRGPRX4 + RAMP3 [1]; Tet-On MRGPRX4:RAMP3 Ratio 1:0.75 (Fig. S5F), read-out: IP1 EC50): 7.11 µM; Emax (MRGPRX4 + RAMP3 [1]; [8]): 80.5%; IP1 Basal (MRGPRX4 + RAMP3 [1]; [9]): 9.885; IP1 span (top minus basal of the concentration-response fit) (MRGPRX4 + RAMP3 [1]; [9]): 71.3%; EC50 (MRGPRX4 + RAMP3 [1]; Tet-On MRGPRX4:RAMP3 Ratio 1:1 (Fig. S5F), read-out: IP1 EC50): 8.79 µM; Emax (MRGPRX4 + RAMP3 [1]; [9]): 81.2%; IP1 accumulation (normalized) (MRGPRX4 + RAMP3 [1]; log [nateglinide] (M) -4): 57.5355 and 90.9736 and 62.9483; IP1 accumulation (normalized) (MRGPRX4 + RAMP3 [1]; log [nateglinide] (M) -4.69897): 50.3774 and 62.0079 and 49.4001; IP1 accumulation (normalized) (MRGPRX4 + RAMP3 [1]; log [nateglinide] (M) -5.39794): 23.5136 and 36.2384 and 24.8216; IP1 accumulation (normalized) (MRGPRX4 + RAMP3 [1]; log [nateglinide] (M) -6.09691): 12.0843 and 16.5706 and 10.8044; IP1 accumulation (normalized) (MRGPRX4 + RAMP3 [1]; log [nateglinide] (M) -7.49485): 6.988 and 11.3646 and 7.305; response to agonist, X4:ramp3.I:2 (MRGPRX4 + RAMP3 [2]): 54.9628 and 57.8528
